Measurements taken from US5827837A, “Polyanion anti-inflammatory agents” (priority 1996, dated 1998).
Like-named read-outs stand apart in the source and are kept apart here.

Columns and labels:
[1] = target: T1, L-selectin-lg fusion protein (Homo sapiens, UniProt P14151); test: Competition ELISA: binding of L-selectin-Ig to immobilized BSA-sLe^x
T1 construct: Each selectin-lg contains the lectin domain, epidermal growth factor domain, and one (L-selectin-lg), two (P-selectin-lg) or six (E-selectin-lg) complement regulatory repeats; made in house
Source text: Selectin-lg fusion proteins are recombinant chimeric molecules containing extracellular regions of selectins coupled to the hinge, CH2, and CH3 regions of human IgG1 (Aruffo, A., et al., Cell, 67:35, 1991; Walz, G., et al., Science, 250:1132, 1990). Each selectin-lg contains the lectin domain, epidermal growth factor domain, and one (L-selectin-lg), two (P-selectin-lg) or six (E-selectin-lg) complement regulatory repeats of the parent molecules. DNAs encoding selectin-Ig inserted in pCDM7 allowed transient expression of recombinant proteins in COS cells as previously described (Seed, B., et al., Proc. Natl. Acad. Sci., U.S.A., 84:3365, 1987; Aruffo, A., Current Protocols In Molecular Biology, eds. Ausubel, F. M., et al, 16:13.1, Greene Publishing Associates and Wiley-lnterscience, New York, N.Y., 1992). These DNAs were also ligated into pNUT (Palmiter, R. D., et al, Cell, 50:435, 1987) for amplification and stable expression in BHK cells. The fusion proteins were affinity purified from culture media using protein A (Pierce Chemical Company, Rockford, Ill.) or protein G (Pharmacia, Piscataway, N.J.) Sepharose, as previously described (Aruffo, A., et al., Cell, 67:35, 1991; Aruffo, A., Current Protocols In Molecular Biology, eds. Ausubel, F. M., et al, supra, 1992). Competition binding ELISAs using P- and E-selectin-lg were performed essentially as described (Nelson, R. M., et al., J. Clin. […] Selectin concentrations were from 10 to 30 nM. […] To increase L-selectin binding, an assay similar to that previously described was used (Foxall, C., et al., J. Cell Biol., 117:895, 1992), in which the L-selectin-lg (10-20 nM) was allowed to form aggregates with HRP-conjugated anti-lg antibody for 30 minutes prior to addition of inositols and incubation on the BSA-sLe^x -coated plate. IC50 values were calculated by fitting binding data to the equation: fraction of maximal binding=IC50 […] using nonlinear least squares analysis software (Origin, Microcal Inc, Northampton, Mass.). InsP6 (dodecasodium salt), InsS6 (hexapotassium salt), myo-inositol 1 monophosphate (cyclohexylammonium salt), and myo-inositol were from Sigma Chemical Company (St. Louis, Mo.). Stock solutions were prepared daily in 0.9% NaCl and sterilized by 0.22 μm filtration. InsP6 solutions were adjusted at pH 7.4 with HCl.
L-, P-, or E-selectin-lg fusion proteins were incubated for 2-3 hours on microtiter plates coated with the neoglycoprotein BSA-sLe^x, the plates washed, and bound selectin-lg was detected using a peroxidase-conjugated antibody directed against the lg portion and a chromogenic substrate. To determine blocking activity, solution-phase lnsP6 (.circle-solid.), InsS6 (.largecircle.), or inositol (.box-solid.) at the indicated concentrations were added to the solutions containing selectin-Ig fusion proteins prior to transfer to microtiter plates (competition ELISA).

P-selectin (P-COS) = target: T2, P-selectin (P-COS) (Homo sapiens, UniProt P16109); test: PMN adhesion to P-selectin transfected COS cells (P-COS); assay type: cell-based; conditions: for PMN adhesion to P-selectin transfected COS: inositol up to 10 mM, InsP6 0.5 mM
T2 construct: adhesion of human PMN or HL60
T2 sequence (P16109 42-830): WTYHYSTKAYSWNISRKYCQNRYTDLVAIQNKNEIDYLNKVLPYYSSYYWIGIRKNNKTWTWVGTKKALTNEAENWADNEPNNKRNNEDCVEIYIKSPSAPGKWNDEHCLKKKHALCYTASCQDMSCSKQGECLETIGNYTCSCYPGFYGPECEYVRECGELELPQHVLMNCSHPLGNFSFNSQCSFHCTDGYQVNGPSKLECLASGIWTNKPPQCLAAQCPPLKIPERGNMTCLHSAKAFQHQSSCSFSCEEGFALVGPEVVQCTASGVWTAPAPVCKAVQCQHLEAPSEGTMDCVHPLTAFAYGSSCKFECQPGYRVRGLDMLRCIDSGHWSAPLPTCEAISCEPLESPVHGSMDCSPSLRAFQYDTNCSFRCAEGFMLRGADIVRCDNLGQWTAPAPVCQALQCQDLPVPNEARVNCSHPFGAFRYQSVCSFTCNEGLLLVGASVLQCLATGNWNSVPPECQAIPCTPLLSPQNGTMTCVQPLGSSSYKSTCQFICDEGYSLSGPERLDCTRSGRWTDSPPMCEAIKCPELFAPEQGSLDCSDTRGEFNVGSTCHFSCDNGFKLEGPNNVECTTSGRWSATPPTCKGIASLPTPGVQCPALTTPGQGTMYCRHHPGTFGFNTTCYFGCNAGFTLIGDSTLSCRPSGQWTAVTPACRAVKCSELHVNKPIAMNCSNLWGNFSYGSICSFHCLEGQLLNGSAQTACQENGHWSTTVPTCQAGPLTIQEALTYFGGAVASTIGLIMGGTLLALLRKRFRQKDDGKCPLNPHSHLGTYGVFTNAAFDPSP
Procedure: COS-1 cells were transfected as described (Seed, B., et al., Proc. Natl. Acad. Sci., U.S.A., 84:3365, 1987; Aruffo, A., Current Protocols In Molecular Biology, eds. supra, 1992) with pCDM7/pCDM8 expression vectors containing the full-length E-, P- and L-selectin cDNA. Transfected COS-1 cells were seeded on gelatin coated coverslips.

SMILES | IC50 [1] | blocking of L-selectin-Ig at reduced Ca^2+ ([1]; Ca^2+ reduced to 0.15 mM) | PMN adhesion to P-selectin transfected COS (P-selectin (P-COS)) | IC50 ([1]; BSA-sLe^x competition ELISA, read-out: IC50, L-selectin binding) | inhibition at 5000 µM (P-selectin (P-COS); COS, 5 mM, read-out: blocking of PMN adhesion to P-selectin transfected COS) | blocking of L-selectin-Ig binding ([1]; BSA-sLe^x competition ELISA)
O=P(O)(O)O[C@H]1[C@H](OP(=O)(O)O)[C@@H](OP(=O)(O)O)[C@H](OP(=O)(O)O)[C@@H](OP(=O)(O)O)[C@H]1OP(=O)(O)O [InsP6, myo-inositol hexakisphosphate] | 3.1 ± 0.5 µM | not enhanced | blocked PMN adhesion to P-COS |  |  | 
O=S(=O)(O)O[C@H]1[C@H](OS(=O)(=O)O)[C@@H](OS(=O)(=O)O)[C@H](OS(=O)(=O)O)[C@@H](OS(=O)(=O)O)[C@H]1OS(=O)(=O)O [InsS6, myo-inositol hexakissulfate] |  |  |  | 210 ± 110 µM | 63% | 
O[C@H]1[C@H](O)[C@@H](O)[C@H](O)[C@@H](O)[C@H]1O [myo-inositol, reference compound] |  |  | no effect at concentrations up to 10 mM |  |  | not myo-isositol, blocked binding
